Experimental data published in patent US20080234304A1, “N3-Pyridyl-Thiamine And Its Use In Cancer Treatments” (AVEO PHARMACEUTICALS, INC., priority 2004, published 2008).
“Also recorded” adds a separate entry of the source.

Assays:
transketolase [1] = assay: transketolase activity in blood and tissues of N3PT-treated mice; type: in vivo, mouse; conditions: 200 mg/kg/day, relative to vehicle
Experimental: (§1) […] Blood samples were taken (40 μl whole blood) serially or from sacrificed animals at the end of a study. Tissues, including tumor, brain, heart, kidney, liver, lung, spleen, were taken and flash frozen in liquid nitrogen or on dry ice and stored at −80° C. until assay. Blood was diluted into lysis buffer and dissolved. Tissues were suspended in lysis buffer and homogenized with PowerGen 125 (Fisher Scientific) while being submerged in an ice-water bath.
(§2) Transketolase assays were performed as in Example 2. The lysate was used right away or flash frozen and stored at −80° C. until assay. The protein concentration in the lysate was determined using a Bradford assay (BioRad) with BSA as a standard. The enzymatic velocity was normalized to the total protein concentration for inter-sample comparisons. In order to obtain reliable results across samples, it was important to have similar starting protein concentrations (such as within 30%). This was achieved by weighing the tissue before lysis so that the suspensions contained similar tissue/ml lysis buffer for all samples.

transketolase [2] = target: T1, transketolase (Mus musculus, UniProt P40142); assay: as above; type: in vivo
T1 construct: from tissue; host or cells: whole blood, spleen, brain and other tissues of Balb C nude mice; also xenograft tumours
T1 sequence (P40142 1-623): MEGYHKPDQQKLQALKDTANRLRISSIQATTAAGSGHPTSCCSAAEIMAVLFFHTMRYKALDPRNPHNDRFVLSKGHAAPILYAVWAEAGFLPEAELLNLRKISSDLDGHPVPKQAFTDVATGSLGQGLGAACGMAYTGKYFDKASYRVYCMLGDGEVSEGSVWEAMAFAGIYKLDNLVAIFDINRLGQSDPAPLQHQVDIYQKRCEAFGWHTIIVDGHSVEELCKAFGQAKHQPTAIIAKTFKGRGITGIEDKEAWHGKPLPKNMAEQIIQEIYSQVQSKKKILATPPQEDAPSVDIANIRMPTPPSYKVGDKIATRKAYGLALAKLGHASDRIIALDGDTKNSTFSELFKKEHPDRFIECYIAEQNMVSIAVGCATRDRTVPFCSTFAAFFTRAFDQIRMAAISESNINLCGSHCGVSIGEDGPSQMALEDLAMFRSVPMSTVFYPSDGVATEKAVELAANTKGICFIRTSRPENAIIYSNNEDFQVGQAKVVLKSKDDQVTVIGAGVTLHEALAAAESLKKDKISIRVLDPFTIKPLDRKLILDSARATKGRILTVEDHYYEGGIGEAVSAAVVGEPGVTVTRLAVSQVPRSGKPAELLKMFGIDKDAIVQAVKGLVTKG
Experimental: as §1, §2

[3] = overall animal weight and major organ weight of treated mice; type: in vivo, mouse; conditions: 200 mg/kg/day
Experimental: (§3) A mouse xenograft model was used to evaluate the efficacy of N3PT in modulating tumor growth. Cancer cells (HCT-116 Luc+, comprising a stably transfected luciferase gene) were injected subcutaneously (10^6 cells) into Balb C nude mice on both flanks on day 7 prior to treatment. Tumors were allowed to grow to palpable size from test day 0, defined as the start of a treatment regime. N3PT was injected ip (intraperitoneally) at a given regimen (e.g., 200 mg/kg/day) and tumor size monitored by luminance intensity from day 0-7, caliper measurement after day 7, and by weight at the end of study, after the animals were sacrificed. See, e.g., Wang and El-Deiry, Cancer Biol Ther. 2(2):196-202 (2003); Ray et al., Cancer Res. 63(6):1160-5 (2003); see also, e.g., U.S. Pat. Nos. 6,416,960; 6,596,257; and 6,217,847.

[4] = target: T2, glucose-6-phosphate dehydrogenase (G6PDH) (Mus musculus, UniProt Q00612); assay: G6PDH activity in blood and tissues of N3PT-treated mice; type: in vivo
T2 construct: (G6PDH) in blood, spleen and brain after a single dose of N3PT in mice; from tissue; host or cells: blood, spleen and brain of Balb C nude mice
T2 sequence (Q00612 whole entry): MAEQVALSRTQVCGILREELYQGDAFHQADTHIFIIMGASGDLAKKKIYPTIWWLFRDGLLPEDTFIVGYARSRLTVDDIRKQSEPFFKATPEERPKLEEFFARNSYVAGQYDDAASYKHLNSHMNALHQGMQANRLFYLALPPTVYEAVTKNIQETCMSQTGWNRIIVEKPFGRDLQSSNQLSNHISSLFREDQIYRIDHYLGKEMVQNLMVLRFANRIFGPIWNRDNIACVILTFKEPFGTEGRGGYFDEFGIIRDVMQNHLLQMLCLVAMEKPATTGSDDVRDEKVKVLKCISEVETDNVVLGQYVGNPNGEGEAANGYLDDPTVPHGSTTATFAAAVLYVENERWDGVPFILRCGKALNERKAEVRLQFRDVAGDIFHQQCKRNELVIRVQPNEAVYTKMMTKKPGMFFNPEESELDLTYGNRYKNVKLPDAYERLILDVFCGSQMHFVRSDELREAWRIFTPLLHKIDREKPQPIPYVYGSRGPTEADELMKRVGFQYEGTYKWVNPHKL

HCT116 = assay: inhibition of proliferation of HCT116 cells; type: cell-based, human; conditions: HCT116 colon carcinoma
Experimental: (§4) The ability of N3PT to inhibit proliferation of these cell lines was then tested. LAMA84 was the most sensitive to N3PT, displaying an IC50 of 0.3 μM. The other cell lines, HCT116 and K562, were less sensitive, displaying an IC50 of approximately 2 μM in both cases. LAMA84 also had the highest TK activity (per cell) among these three cancer lines.

HCT-116 Luc+ tumors = assay: mouse xenograft model, tumor growth; type: in vivo; conditions: 200 mg/kg/day, twice daily, ip; Balb C nude mice
Experimental: as §3

[5] = brain penetration after a single dose in mice; type: in vivo, mouse
Experimental: To assess the ability of N3PT to inhibit transketolase in vivo, a single dose of N3PT was administered to Balb C nude mice (ip, 100 mg/kg), and blood and tissue samples were collected over time and enzymatic activities determined. Blood samples were taken (40 μl whole blood) serially or from sacrificed animals at the end of a study. Tissues, including tumor, brain, heart, kidney, liver, lung, spleen, were taken and flash frozen in liquid nitrogen or on dry ice and stored at −80° C. until assay. Blood was diluted into lysis buffer and dissolved. Tissues were suspended in lysis buffer and homogenized with PowerGen 125 (Fisher Scientific) while being submerged in an ice-water bath.

K562 = assay: inhibition of proliferation of K562 cells; type: cell-based; conditions: K562 CML line
Experimental: as §4

[6] = target: purified apotransketolase; assay: inhibition of purified apotransketolase; type: biochemical
From the text: N3PT is a thiamine (vitamin B1) derivative. Thiamine pyrophosphate (TPP) is a co-factor for catalysis by the enzyme transketolase (as well as for the enzymes kGDH and PDH). […] A standard method for isolating and measuring the IC50 of apotransketolase is described in Konig et al., J. Biol. Chem. 269: 10879-82 (1994).

SMILES: Cc1ccc(C[n+]2csc(CCO)c2C)c(N)n1 [N3PT, 3-[(2-amino-6-methyl-3-pyridinyl)methyl]-5-(2-hydroxyethyl)-4-methyl thiazolium]
- transketolase activity in tumors (transketolase [1]): reduced
- transketolase activity in whole blood (transketolase [2]; 200 mg/kg/day, relative to vehicle): reduced; also recorded: selectively inhibited
- sensitivity of spleen transketolase to N3PT on low-thiamine diet (transketolase [2]; diets with 16.5, 5, 1 or 0 mg/kg thiamine, N3PT ip, 12 hours later): enhances the sensitivity to N3PT inhibition of TK in spleen; also recorded: more sensitive to TK inhibition by N3PT
- selectivity of transketolase inhibition in vivo versus kGDH and G6PDH (transketolase [2]; single dose 100 mg/kg body weight, mouse, 100 mg/kg): selective inhibitor of transketolase in vivo; also recorded: selectively inhibits transketolase
- duration of transketolase inhibition in vivo (transketolase [2]; single dose 100 mg/kg i.p., blood and spleen, 0-120 hr, 100 mg/kg): potent and long-lasting transketolase inhibitor in vivo
- overall animal weight ([3]; day 0, 6 and 11): no effect on overall animal weight; also recorded: did not affect
- major organ weight (brain, heart, kidney, liver, lung, spleen) ([3]; day 11 post treatment): no effect on major organ weight; also recorded: did not affect
- G6PDH activity after repeated treatment ([4]; 200 mg/kg/day, % of vehicle average): no effect on G6PDH activity
- G6PDH activity after single dose ([4]; single dose 100 mg/kg i.p., blood, spleen, brain, 0-120 hr, 100 mg/kg): no effect on G6PDH in vivo; also recorded: little or no effect
- IC50 (HCT116): ~2000 nM
- growth of explant tumors (HCT-116 Luc+ tumors): inhibits growth of tumors in vivo; also recorded: inhibited the growth of explant tumors
- brain penetration [5]: little or no significant brain penetration
- IC50 (K562): ~2000 nM
- IC50 [6]: 21 nM
